Data from patent publication US20080009418A1, “Selective Inhibitors” (Alchemia LTD., priority 2004, published 2008).

Legend:
[1] = target: T1, Human δ-opioid (DOP) (Homo sapiens, UniProt P41143); test: Radioligand binding, human δ-opioid (DOP) membranes, FlashPlate, [3H]-Bremazocine; settings: compound at 10 μM, [3H]-Bremazocine
T1 construct: purchased Perkin Elmer Biosignal
Outline: (§1)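 Cloned human receptor membranes were coated onto FlashPlate wells and incubated with radioligand and compound (added from a 0.5 mM DMSO daughter plate) for 1 hour at room temperature in the dark. Scintillation counting gave percent inhibition, with DMSO defining total and reference ligand defining non-specific binding.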

[2] = target: T2, Human μ-opioid (MOP) (Homo sapiens, UniProt P35372); test: Radioligand binding, human μ-opioid (MOP) membranes, FlashPlate, [3H]-Naloxone; settings: compound at 10 μM, [3H]-Naloxone
T2 construct: purchased Perkin Elmer Biosignal
Outline: as §1

[3] = target: T3, Human Melanocortin (MC3) (Homo sapiens, UniProt P41968); test: Radioligand binding, human melanocortin MC3 membranes, FlashPlate, [125I]-NDP-αMSH; settings: compound at 10 μM, [125I]-NDP-αMSH
T3 construct: purchased Perkin Elmer Biosignal
Outline: as §1

[4] = target: T4, Mouse urotensin (mUR2) (Mus musculus, UniProt Q8VIH9); test: Radioligand binding, mouse urotensin mUR2 membranes, FlashPlate, [125I]-Urotensin II; settings: compound at 10 μM, [125I]-Urotensin II
T4 construct: purchased Perkin Elmer Biosignal
T4 sequence (Q8VIH9 1-385): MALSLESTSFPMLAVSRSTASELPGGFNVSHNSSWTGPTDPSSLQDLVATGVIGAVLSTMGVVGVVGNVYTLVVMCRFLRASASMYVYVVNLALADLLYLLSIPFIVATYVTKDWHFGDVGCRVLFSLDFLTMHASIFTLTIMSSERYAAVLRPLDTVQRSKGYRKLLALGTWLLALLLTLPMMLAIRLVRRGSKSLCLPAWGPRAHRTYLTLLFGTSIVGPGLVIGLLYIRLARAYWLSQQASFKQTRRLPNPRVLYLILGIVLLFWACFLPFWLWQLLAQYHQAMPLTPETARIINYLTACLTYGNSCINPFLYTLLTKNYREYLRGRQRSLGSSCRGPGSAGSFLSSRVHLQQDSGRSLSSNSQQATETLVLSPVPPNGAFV
Outline: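 Cloned mouse urotensin (mUR2) receptor membranes from Perkin Elmer Biosignal were immobilized in FlashPlate microplates using a proprietary coating. Each well got 19.5 μl buffer, then 0.5 μl of DMSO, reference ligand, or compound. Adding 5 μl of [125I]-Urotensin II, diluted to 5× final concentration in binding buffer, started binding. Plates were sealed with TopSeal-A and incubated 1 hour at room temperature in the dark. Wells were counted for 30 seconds each on a TopCount after a 60-second delay, and percentage inhibition was calculated.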

[5] = target: T5, Human neuropeptide Y (NPY-Y1) (Homo sapiens, UniProt P25929); test: Radioligand binding, human neuropeptide Y NPY-Y1 membranes, FlashPlate, [125I]-PYY; settings: compound at 10 μM, [125I]-PYY
T5 construct: purchased Perkin Elmer Biosignal
T5 sequence (P25929 1-384): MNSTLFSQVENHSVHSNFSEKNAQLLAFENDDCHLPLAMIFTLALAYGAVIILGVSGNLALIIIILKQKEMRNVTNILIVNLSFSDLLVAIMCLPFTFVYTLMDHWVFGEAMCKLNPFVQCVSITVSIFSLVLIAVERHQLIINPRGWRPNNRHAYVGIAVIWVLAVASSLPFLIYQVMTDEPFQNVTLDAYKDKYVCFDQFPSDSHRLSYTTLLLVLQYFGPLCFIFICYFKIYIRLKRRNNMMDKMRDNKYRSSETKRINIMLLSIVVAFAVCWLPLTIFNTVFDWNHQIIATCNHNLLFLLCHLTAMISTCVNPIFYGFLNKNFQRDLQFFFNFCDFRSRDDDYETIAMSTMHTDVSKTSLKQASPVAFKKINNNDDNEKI
Outline: as §1

[6] = target: T6, Human κ-Opioid (KOP) (Homo sapiens, UniProt P41145); test: Radioligand binding, human κ-opioid (KOP) membranes, filtration, [3H]-Diprenorphine; settings: compound at 10 μM, [3H]-Diprenorphine
T6 construct: purchased Perkin Elmer Biosignal
Outline: (§2)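 Filtration binding on cloned human receptor membranes (1 Unit/well), [125I]-Substance P for NK1 and [3H]-Diprenorphine for KOP, 1 h at room temperature. Filters PEI-presoaked, washed with cold 50 mM Tris-HCl pH 7.4, counted by scintillation; percent inhibition calculated, reference ligand defining non-specific binding.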

[7] = target: T7, Human melanocortin (MC5) (Homo sapiens, UniProt P33032); test: Radioligand binding, human melanocortin MC5 membranes, FlashPlate, [125I]-NDP-αMSH; settings: compound at 10 μM, [125I]-NDP-αMSH
T7 construct: purchased Perkin Elmer Biosignal
Outline: as §1

[8] = target: T8, Human Melanocortin (MC4) (Homo sapiens, UniProt P32245); test: Radioligand binding, human melanocortin MC4 membranes, FlashPlate, [125I]-NDP-αMSH; settings: compound at 10 μM, [125I]-NDP-αMSH
T8 construct: purchased Perkin Elmer Biosignal
Outline: as §1

[9] = target: T9, Human neurokinin (NK1) (Homo sapiens, UniProt P25103); test: Radioligand binding, human neurokinin NK1 membranes, filtration, [125I]-Substance P; settings: compound at 10 μM, [125I]-Substance P
T9 construct: purchased Perkin Elmer Biosignal
Outline: as §2

[10] = target: T10, Human opioid (ORL1) (Homo sapiens, UniProt P41146); test: Radioligand binding, human opioid ORL1 membranes, FlashPlate, [125I]-Nociceptin; settings: compound at 10 μM, [125I]-Nociceptin
T10 construct: purchased Perkin Elmer Biosignal
Outline: as §1

[11] = target: T11, Human melanin-concentrating hormone (MCH1) (Homo sapiens, UniProt Q99705); test: Radioligand binding, human melanin-concentrating hormone MCH1 membranes, FlashPlate, [125I]-S36057; settings: compound at 10 μM
T11 construct: purchased Perkin Elmer Biosignal
Outline: as §1

T1 sequence (P41143 whole entry): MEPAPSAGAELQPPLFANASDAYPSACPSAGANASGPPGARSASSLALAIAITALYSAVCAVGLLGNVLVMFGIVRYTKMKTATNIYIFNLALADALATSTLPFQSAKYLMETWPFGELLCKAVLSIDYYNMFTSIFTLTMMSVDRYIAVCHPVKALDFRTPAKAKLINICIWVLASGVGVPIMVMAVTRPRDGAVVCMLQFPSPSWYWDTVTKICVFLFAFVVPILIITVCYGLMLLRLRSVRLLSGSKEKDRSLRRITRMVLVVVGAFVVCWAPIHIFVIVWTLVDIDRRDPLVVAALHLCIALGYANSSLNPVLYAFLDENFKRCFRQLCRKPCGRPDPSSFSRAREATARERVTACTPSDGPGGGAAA
T6 sequence (P41145 whole entry): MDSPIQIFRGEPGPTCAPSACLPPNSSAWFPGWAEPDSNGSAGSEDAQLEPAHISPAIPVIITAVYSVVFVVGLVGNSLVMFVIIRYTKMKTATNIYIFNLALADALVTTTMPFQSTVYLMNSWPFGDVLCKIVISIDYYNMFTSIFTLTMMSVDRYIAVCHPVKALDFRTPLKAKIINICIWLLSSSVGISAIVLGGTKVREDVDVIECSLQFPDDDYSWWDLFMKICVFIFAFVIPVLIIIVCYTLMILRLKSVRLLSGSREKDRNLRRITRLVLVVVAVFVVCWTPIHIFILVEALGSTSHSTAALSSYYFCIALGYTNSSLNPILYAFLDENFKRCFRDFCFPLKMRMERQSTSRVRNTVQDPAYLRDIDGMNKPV
T9 sequence (P25103 whole entry): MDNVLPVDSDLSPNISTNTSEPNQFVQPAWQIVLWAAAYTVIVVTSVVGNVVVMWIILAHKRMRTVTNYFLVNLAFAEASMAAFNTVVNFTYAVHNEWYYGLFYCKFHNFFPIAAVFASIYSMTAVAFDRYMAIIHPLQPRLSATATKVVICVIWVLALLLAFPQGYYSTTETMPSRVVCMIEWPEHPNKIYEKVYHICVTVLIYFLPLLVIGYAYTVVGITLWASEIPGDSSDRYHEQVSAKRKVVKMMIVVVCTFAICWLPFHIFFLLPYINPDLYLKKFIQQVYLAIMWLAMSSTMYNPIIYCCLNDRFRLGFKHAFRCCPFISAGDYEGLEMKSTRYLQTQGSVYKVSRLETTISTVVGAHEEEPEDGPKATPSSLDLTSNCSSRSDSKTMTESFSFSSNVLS
T2 sequence (P35372 whole entry): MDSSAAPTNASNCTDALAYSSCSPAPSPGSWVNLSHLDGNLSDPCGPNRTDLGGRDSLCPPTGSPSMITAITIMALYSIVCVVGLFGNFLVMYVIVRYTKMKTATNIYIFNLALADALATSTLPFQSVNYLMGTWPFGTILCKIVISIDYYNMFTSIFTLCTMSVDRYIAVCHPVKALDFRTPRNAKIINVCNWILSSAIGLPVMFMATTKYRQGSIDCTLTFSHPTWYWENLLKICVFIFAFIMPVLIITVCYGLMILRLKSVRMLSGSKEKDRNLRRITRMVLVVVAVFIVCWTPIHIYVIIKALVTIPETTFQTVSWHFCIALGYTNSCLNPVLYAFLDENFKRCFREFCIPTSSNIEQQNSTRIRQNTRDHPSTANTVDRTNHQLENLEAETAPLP
T10 sequence (P41146 whole entry): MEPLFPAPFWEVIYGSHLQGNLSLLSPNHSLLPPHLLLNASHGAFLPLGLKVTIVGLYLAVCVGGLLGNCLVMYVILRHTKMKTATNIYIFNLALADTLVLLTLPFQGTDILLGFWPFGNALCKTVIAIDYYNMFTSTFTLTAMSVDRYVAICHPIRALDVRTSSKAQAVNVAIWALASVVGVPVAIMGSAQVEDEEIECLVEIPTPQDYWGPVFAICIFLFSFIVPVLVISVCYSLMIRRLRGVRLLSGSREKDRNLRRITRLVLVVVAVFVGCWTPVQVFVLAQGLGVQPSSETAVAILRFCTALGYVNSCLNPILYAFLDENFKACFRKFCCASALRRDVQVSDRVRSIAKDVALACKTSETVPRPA
T8 sequence (P32245 whole entry): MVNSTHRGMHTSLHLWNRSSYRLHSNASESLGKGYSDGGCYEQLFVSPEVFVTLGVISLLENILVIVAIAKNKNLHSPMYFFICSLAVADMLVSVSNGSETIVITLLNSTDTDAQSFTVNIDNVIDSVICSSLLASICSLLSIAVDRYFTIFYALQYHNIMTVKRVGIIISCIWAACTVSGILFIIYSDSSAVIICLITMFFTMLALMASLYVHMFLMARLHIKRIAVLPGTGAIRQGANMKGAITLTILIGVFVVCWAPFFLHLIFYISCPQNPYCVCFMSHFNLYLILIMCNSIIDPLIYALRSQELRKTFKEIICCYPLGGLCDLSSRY
T7 sequence (P33032 whole entry): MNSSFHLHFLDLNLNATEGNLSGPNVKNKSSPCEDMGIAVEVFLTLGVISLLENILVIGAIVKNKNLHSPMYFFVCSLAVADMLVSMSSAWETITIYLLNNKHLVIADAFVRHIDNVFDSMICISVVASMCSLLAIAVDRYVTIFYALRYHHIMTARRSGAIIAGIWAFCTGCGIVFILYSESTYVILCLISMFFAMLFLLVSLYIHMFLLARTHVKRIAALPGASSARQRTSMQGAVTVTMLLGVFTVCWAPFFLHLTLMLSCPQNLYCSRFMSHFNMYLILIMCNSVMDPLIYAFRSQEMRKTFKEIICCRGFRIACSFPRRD
T3 sequence (P41968 whole entry): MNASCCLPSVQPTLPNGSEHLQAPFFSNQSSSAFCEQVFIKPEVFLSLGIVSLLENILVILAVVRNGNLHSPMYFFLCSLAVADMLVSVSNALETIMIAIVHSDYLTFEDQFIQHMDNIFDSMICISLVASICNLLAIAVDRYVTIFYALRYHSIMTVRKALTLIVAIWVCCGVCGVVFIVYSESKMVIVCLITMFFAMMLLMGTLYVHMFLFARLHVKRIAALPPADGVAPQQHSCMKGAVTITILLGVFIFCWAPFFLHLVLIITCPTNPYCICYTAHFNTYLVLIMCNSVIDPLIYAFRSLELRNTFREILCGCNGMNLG
T11 sequence (Q99705 whole entry): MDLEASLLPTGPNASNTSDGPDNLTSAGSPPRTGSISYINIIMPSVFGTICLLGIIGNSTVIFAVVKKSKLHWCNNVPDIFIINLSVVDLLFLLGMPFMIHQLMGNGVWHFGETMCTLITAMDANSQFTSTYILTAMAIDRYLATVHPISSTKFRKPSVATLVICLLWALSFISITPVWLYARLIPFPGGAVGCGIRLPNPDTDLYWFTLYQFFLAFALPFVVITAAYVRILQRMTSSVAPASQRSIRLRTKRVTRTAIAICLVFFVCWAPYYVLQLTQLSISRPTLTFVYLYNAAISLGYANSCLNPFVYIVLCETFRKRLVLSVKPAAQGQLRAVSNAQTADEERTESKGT

## CO[C@H]1[C@H](O)[C@@H](COCc2ccc(Cl)cc2)OC(OCCc2ccccc2)[C@@H]1NC(=O)CCCNC(=N)N (stereo partly drawn) [compound 122]
[1]
  A1 radioligand binding, percentage inhibition: − (“−” indicates less than 50% inhibition at 10 μM)
[2]
  A7 radioligand binding, percentage inhibition: − (“−” indicates less than 50% inhibition at 10 μM)
[3]
  A3 radioligand binding, percentage inhibition: − (“−” indicates less than 50% inhibition at 10 μM)
[4]
  A11 radioligand binding, percentage inhibition: − (“−” indicates less than 50% inhibition at 10 μM)
[5]
  A9 radioligand binding, percentage inhibition: − (“−” indicates less than 50% inhibition at 10 μM)
[6]
  A2 radioligand binding, percentage inhibition: − (“−” indicates less than 50% inhibition at 10 μM)
[7]
  A5 radioligand binding, percentage inhibition: + (“+” indicates greater than 50% inhibition at 10 μM)
[8]
  A4 radioligand binding, percentage inhibition: + (“+” indicates greater than 50% inhibition at 10 μM)
[9]
  A8 radioligand binding, percentage inhibition: + (“+” indicates greater than 50% inhibition at 10 μM)
[10]
  A10 radioligand binding, percentage inhibition: − (“−” indicates less than 50% inhibition at 10 μM)
[11]; [125I]-S36057
  A6 radioligand binding, percentage inhibition: − (“−” indicates less than 50% inhibition at 10 μM)

## COCC1OC(OCc2ccccc2)C(NC(=O)CCCN)C(OCc2ccc3ccccc3c2)C1O (stereo not drawn) [compound 192]
[1]; FlashPlate
  A1: inhibition of radioligand binding: − (“−” indicates less than 50% inhibition at 10 μM)
[2]; FlashPlate
  A7: inhibition of radioligand binding: − (“−” indicates less than 50% inhibition at 10 μM)
[3]; FlashPlate
  A3: inhibition of radioligand binding: − (“−” indicates less than 50% inhibition at 10 μM)
[4]; FlashPlate
  A11: inhibition of radioligand binding: − (“−” indicates less than 50% inhibition at 10 μM)
[5]; FlashPlate
  A9: inhibition of radioligand binding: − (“−” indicates less than 50% inhibition at 10 μM)
[6]; filtration
  A2: inhibition of radioligand binding: − (“−” indicates less than 50% inhibition at 10 μM)
[7]; FlashPlate
  A5: inhibition of radioligand binding: + (“+” indicates greater than 50% inhibition at 10 μM)
[8]; FlashPlate
  A4: inhibition of radioligand binding: − (“−” indicates less than 50% inhibition at 10 μM)
[9]; filtration
  A8: inhibition of radioligand binding: + (“+” indicates greater than 50% inhibition at 10 μM)
[10]; FlashPlate
  A10: inhibition of radioligand binding: − (“−” indicates less than 50% inhibition at 10 μM)
[11]; [125I]-S36057, FlashPlate
  A6: inhibition of radioligand binding: − (“−” indicates less than 50% inhibition at 10 μM)

## CSC1OC(COCc2cccc(N)c2)C(O)C(OCc2ccccc2)C1NC(=O)c1c[nH]c2ccccc12 (stereo not drawn) [compound 326]
[1]
  A1: inhibition of radioligand binding, human δ-opioid (DOP): − (“−” indicates less than 50% inhibition at 10 μM)
[2]
  A7: inhibition of radioligand binding, human μ-opioid (MOP): − (“−” indicates less than 50% inhibition at 10 μM)
[3]
  A3: inhibition of radioligand binding, human melanocortin (MC3): − (“−” indicates less than 50% inhibition at 10 μM)
[4]
  A11: inhibition of radioligand binding, mouse urotensin (mUR2): − (“−” indicates less than 50% inhibition at 10 μM)
[5]
  A9: inhibition of radioligand binding, human neuropeptide Y (NPY-Y1): − (“−” indicates less than 50% inhibition at 10 μM)
[6]
  A2: inhibition of radioligand binding, human κ-opioid (KOP): − (“−” indicates less than 50% inhibition at 10 μM)
[7]
  A5: inhibition of radioligand binding, human melanocortin (MC5): − (“−” indicates less than 50% inhibition at 10 μM)
[8]
  A4: inhibition of radioligand binding, human melanocortin (MC4): − (“−” indicates less than 50% inhibition at 10 μM)
[9]
  A8: inhibition of radioligand binding, human neurokinin (NK1): + (“+” indicates greater than 50% inhibition at 10 μM)
[10]
  A10: inhibition of radioligand binding, human opioid (ORL1): − (“−” indicates less than 50% inhibition at 10 μM)
[11]; [125I]-S36057
  A6: inhibition of radioligand binding, human melanin-concentrating hormone (MCH1): − (“−” indicates less than 50% inhibition at 10 μM)
